Non-standard residues stand in square brackets, D forms with d. Residues, ends and D or L forms follow the SMILES beside them.
How the values were obtained:
[1] = target: Proteinase K (Parengyodontium album, UniProt P06873); assay: Incubation of peptide nanotubes with Proteinase K, electron microscopy examination; format: in vitro ADME; conditions: one hour of incubation with 0.02 mg/ml of Proteinase K; compared with before incubation
Source text: For other applications, such as the assembly of nanotube based biosensors or hollow tubing of nanofluidic circuits, enzymatically stable nanotubes are desired. To assemble such stable tubes, proteolytically stable building blocks based on the D-amino-acids analogue of the peptide, NH2-D-Phe-D-Phe-COOH (SEQ ID NO: 8) were used. This peptide formed nanotubes with the same structural features as the corresponding L-amino-acids peptide (FIG. 12a).

[2] = Dissolving lyophilized peptide in 1,1,1,3,3,3-hexafluoro-2-propanol; format: physicochemical; conditions: 100 mg/ml
Description: Peptides (NH2-Phe-Phe-COOH, SEQ ID NO: 1) were purchased from Bachem (Budendorf, Switzerland). Freshly prepared stock solution was prepared by dissolving lyophilized form of the peptide in 1,1,1,3,3,3,-Hexafluoro-2-propanol at a concentration of 100 mg/ml. To avoid any pre-aggregation, fresh stock solution were prepared for each experiment.
Very concentrated peptide solution (i.e., 100 mg/ml) were prepared by dissolving the lyophilized peptide in 1,1,1,3,3,3 hexafluoro-2-propanol. […] Assembly into supramolecular structures was determined within minutes at the μM range, using dynamic light scattering analysis (data not shown).

Sequence of Proteinase K (P06873 106-384): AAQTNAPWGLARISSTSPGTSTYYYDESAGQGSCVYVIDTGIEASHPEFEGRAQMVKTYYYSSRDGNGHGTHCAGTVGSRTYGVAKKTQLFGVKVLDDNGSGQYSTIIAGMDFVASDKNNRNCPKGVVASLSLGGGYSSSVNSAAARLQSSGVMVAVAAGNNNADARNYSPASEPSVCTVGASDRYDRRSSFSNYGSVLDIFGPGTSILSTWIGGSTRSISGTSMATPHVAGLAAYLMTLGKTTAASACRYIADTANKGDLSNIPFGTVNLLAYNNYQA

Row | SMILES | tubular structures observed by electron microscopy after proteolysis [1] | solubility in the organic solvent [2]
1 | N[C@H](Cc1ccccc1)C(=O)N[C@H](Cc1ccccc1)C(=O)O [D-Phe-D-Phe, NH2-D-Phe-D-Phe-COOH] (H-[dF]-[dF]-OH) | no significant variation | 
2 | N[C@@H](Cc1ccccc1)C(=O)N[C@@H](Cc1ccccc1)C(=O)O [NH2-Phe-Phe-COOH] (H-Phe-Phe-OH) | no tubular structures were observed | highly soluble

Source: patent US8927689B2, “Peptide nanostructures and methods of generating and using the same” (Ramot at Tel-Aviv University Ltd., priority 2002, dated 2015)
